What all share (type): cell-based, human
One assay concerns HepG2 cells. Put plainly: In vitro IC50 by MTS assay, HepG2 liver cancer cells. The conditions noted are these: HepG2, 48 hr incubation, MTS assay (490 nm). The method, then: (§1) To Determine the In Vitro IC50 Values on Ten Human Cancer Cell Lines
(§2) HepG2 and PLC/PRF/5 cells are cultured in DMEM medium. Hep3B cells are cultured in MEM medium. NCI-H460 and 786-0 cells are cultured in RPMI 1640 medium. Caki-1, HCT-116, and SK-OV-3 cells are cultured in McCoy's 5A medium. MDA-MB-231 cells are cultured in L15 medium. All cells are cultured in corresponding media supplemented with 10% FBS, at 37° C., 5% CO2, and 95% humidity. All media are purchased from GIBCO.
(§3) CellTiter 96® Aqueous MTS reagent powder (Cat. No. G1112, Promega) Phenazine methosulfate (PMS) (Cat. No. P9625, Sigma)
(§4) Cells are harvested during the logarithmic growth period and counted with hemocytometer. Add 90 μl cell suspensions to 96-well plates (triplicates for each cell concentration), the final cell densities are 2×10^4, 1×10^4, or 5×10^3 cells/well. Prepare a series of drug concentrations for each of JP0916 and cisplatin and dispense 10 μl drug solution in each well (triplicate for each drug concentration). Incubate the plate for 48 hr then measure by MTS assay (490 nm).
(In general: Tetrazolium assays rely on reduction of a dye to a coloured formazan, in cell work by metabolically active cells.)

Another assay concerns Hep3B cells. Kind of assay: In vitro IC50 by MTS assay, Hep3B liver cancer cells. The conditions noted are these: 48 hr incubation, MTS assay (490 nm). The method, then: as §1, §2, §3, §4
A further assay relates to PC/PRF/5 cells. Put plainly: In vitro IC50 by MTS assay, PC/PRF/5 liver cancer cells. The conditions noted are these: PC/PRF/5, 48 hr incubation, MTS assay (490 nm). The method, then: as §1, §2, §3, §4
The test system of the next assay is 786-0 cells. Put plainly: In vitro IC50 by MTS assay, 786-0 kidney cancer cells. The conditions noted are these: 786-0, 48 hr incubation, MTS assay (490 nm). The method, then: as §1, §2, §3, §4
The next assay relates to Caki-1 cells. Put plainly: In vitro IC50 by MTS assay, Caki-1 kidney cancer cells. The conditions noted are these: Caki-1, 48 hr incubation, MTS assay (490 nm). The method, then:
as §1, §2, §3, §4

The test system of a further assay is MDA-MB-231 cells. Put plainly: In vitro IC50 by MTS assay, MDA-MB-231 breast cancer cells. The conditions noted are these: MDA-MB-231, 48 hr incubation, MTS assay (490 nm). The method, then: as §1, §2, §3, §4
The test system of a further assay is HCT-116 cells. Kind of assay: In vitro IC50 by MTS assay, HCT-116 colon cancer cells. The conditions noted are these: HCT-116, 48 hr incubation, MTS assay (490 nm). The method, then:
as §1, §2, §3, §4

In the next assay the test system is NCI-H460 cells. Kind of assay: In vitro IC50 by MTS assay, NCI-H460 NSCLC cells. The conditions noted are these: NCI-H460, 48 hr incubation, MTS assay (490 nm). The method, then:
as §1, §2, §3, §4

The subject of the next assay is SK-OV-3 cells. Put plainly: In vitro IC50 by MTS assay, SK-OV-3 ovarian cancer cells. The conditions noted are these: SK-OV-3, 48 hr incubation, MTS assay (490 nm). The method, then:
as §1, §2, §3, §4

The values that follow come from patent US20100152154A1, “NOVEL PLATINUM COMPOUNDS FOR TREATING CANCER” (priority 2008, published 2010).

What is called IC50 is the midpoint of a concentration-inhibition curve. Take “cis-diamminedichloroplatinum(II) [Cisplatin]”: the IC50 in the assay on HepG2 cells was 25.6 µM; in the assay on Hep3B cells, 3.08 µM; in the assay on PC/PRF/5 cells, 21.8 µM; in the assay on 786-0 cells, 3.54 µM; in the assay with Caki-1 cells, 10.5 µM; in the assay with MDA-MB-231 cells it was 53.2 µM. In addition, the figures for the IC50 in the assay on HCT-116 cells, in the assay on NCI-H460 cells and with SK-OV-3 cells were 10.6 µM, 8.56 µM and 21.6 µM, respectively.
